Molecules are shown by their SMILES.

IC50 data for 17 molecules are collected here from patent US12435046B2, “Alkynyl quinazoline compounds” (Black Diamond Therapeutics, Inc., priority 2019, dated 2025).

What all share (type): cell-based
Holding throughout (conditions): Table A; BaF3 cells, 3 days

The target in experiment [1] is T1, EGFR wt (Homo sapiens, UniProt P00533).
T1 construct: expressed in transfected cells; host or cells: BaF3 (murine pro-B) cells, retroviral transduction with pMXs-IRES-Blasticidin
T1 sequence (P00533 25-1210): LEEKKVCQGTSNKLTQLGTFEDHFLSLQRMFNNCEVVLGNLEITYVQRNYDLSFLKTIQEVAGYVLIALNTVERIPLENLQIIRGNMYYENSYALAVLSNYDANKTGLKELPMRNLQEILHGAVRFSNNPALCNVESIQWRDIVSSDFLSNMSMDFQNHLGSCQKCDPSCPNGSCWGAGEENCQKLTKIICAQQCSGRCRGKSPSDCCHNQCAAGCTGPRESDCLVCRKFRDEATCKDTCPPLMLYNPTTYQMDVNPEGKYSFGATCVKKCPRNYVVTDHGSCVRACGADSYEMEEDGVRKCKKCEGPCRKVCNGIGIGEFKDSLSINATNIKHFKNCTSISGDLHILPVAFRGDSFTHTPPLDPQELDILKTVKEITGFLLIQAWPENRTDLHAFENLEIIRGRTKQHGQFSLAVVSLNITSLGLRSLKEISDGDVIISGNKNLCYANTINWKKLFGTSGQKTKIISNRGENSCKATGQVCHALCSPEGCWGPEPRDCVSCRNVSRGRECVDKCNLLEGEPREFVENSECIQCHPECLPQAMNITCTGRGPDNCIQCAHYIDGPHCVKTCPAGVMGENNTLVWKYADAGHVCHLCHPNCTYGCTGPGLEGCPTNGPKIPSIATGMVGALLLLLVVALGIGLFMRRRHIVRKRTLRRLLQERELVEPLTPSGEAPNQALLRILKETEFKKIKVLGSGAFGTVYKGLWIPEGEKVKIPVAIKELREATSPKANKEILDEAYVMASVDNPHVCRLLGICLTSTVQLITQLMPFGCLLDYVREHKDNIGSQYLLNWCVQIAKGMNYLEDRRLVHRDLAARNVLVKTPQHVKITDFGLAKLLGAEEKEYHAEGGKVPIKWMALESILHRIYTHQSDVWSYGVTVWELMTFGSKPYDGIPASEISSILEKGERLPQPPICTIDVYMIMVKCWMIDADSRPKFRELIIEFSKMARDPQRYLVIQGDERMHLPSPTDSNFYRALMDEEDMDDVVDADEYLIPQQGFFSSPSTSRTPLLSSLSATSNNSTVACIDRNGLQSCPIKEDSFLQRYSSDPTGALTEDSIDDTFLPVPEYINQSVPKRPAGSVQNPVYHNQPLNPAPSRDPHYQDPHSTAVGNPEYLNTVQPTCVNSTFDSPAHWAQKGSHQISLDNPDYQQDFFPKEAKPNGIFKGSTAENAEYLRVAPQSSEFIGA
The experiment in a line: BaF3 cell proliferation assay (CellTiterGlo), EGFR wt. As for the experimental part: (§1) Retroviral Production: EGFR mutants were subcloned into pMXs-IRES-Blasticidin (RTV-016, Cell Biolabs, San Diego, CA). Retroviral expression vector retrovirus was produced by transient transfection of HEK 293T cells with the retroviral EGFR mutant expression vector pMXs-IRES-Blasticidin (RTV-016, Cell Biolabs), pCMV-Gag-Pol vector and pCMV-VSV-G-Envelope vector. Briefly, HEK 293T/17 cells were plated in 100 mm collagen coated plate (354450, Corning Life Sciences, Tewksbury, MA) (4×10^5 per plate) and incubated overnight. The next day, retroviral plasmids (3 ng of EGFR mutant, 1.0 ng of pCMV-Gag-Pol and 0.5 ng pCMV-VSV-G) were mixed in 500 n1 of Optimem (31985, Life Technologies). The mixture was incubated at room temperature for 5 min and then added to Optimem containing transfection reagent Lipofectamine (11668, Invitrogen) and incubated for 20 minutes. Mixture was then added dropwise to HEK 293T cells. The next day the medium was replaced with fresh culture medium and retrovirus was harvested @ 24 and 48 hrs.
(§2) Generation of EGFR mutant stable cell lines: BaF3 cells (1.5E5 cells) were infected with 1 ml of viral supernatant supplemented with 8 ng/ml polybrene by centrifuging for 30 min at 1000 rpm. Cells were placed in a 37° C. incubator overnight. Cells were then spun for 5 minutes to pellet the cells. Supernatant was removed and cells re-infected a fresh 1 ml of viral supernatant supplemented with 8 ng/ml polybrene by centrifuging for 30 min at 1000 rpm. Cells were placed in 37° C. incubator overnight. Cells were then maintained in RPMI containing 10% Heat Inactivated FBS, 2% L-glutamine containing 10 ng/ml IL-3. After 48 hours cells were selected for retroviral infection in 10 […] for one week. Blasticidin resistant populations were washed twice in phosphate buffered saline before plating in media lacking IL-3 to select for IL-3 independent growth.
(§3) Assay for cell proliferation: BaF3 cell lines were resuspended at 1.3E5 c/ml in RPMI containing 10% Heat Inactivated FBS, 2% L-glutamine and 1% Pen/Strep and dispensed in triplicate (17.5E4 c/well) into 96 well plates. To determine the effect of drug on cell proliferation, cells incubated for 3 days in the presence of vehicle control or test drug at varying concentrations. Inhibition of cell growth was determined by luminescent quantification of intracellular ATP content using CellTiterGlo (Promega), according to the protocol provided by the manufacturer. Comparison of cell number on day 0 versus 72 hours post drug treatment was used to plot dose-response curves. The number of viable cells was determined and normalized to vehicle-treated controls. Inhibition of proliferation, relative to vehicle-treated controls was expressed as a fraction of 1 and graphed using PRISM® software (Graphpad Software, San Diego, CA). EC50 values were determined with the same application.

For experiment [2], the target named is T2, EGFR V3 (Homo sapiens, UniProt P00533, DELINS30-297G).
T2 construct: expressed in transfected cells; host or cells: BaF3 (murine pro-B) cells, retroviral transduction with pMXs-IRES-Blasticidin
T2 sequence (P00533 with tags, fused parts or gaps DELINS30-297G): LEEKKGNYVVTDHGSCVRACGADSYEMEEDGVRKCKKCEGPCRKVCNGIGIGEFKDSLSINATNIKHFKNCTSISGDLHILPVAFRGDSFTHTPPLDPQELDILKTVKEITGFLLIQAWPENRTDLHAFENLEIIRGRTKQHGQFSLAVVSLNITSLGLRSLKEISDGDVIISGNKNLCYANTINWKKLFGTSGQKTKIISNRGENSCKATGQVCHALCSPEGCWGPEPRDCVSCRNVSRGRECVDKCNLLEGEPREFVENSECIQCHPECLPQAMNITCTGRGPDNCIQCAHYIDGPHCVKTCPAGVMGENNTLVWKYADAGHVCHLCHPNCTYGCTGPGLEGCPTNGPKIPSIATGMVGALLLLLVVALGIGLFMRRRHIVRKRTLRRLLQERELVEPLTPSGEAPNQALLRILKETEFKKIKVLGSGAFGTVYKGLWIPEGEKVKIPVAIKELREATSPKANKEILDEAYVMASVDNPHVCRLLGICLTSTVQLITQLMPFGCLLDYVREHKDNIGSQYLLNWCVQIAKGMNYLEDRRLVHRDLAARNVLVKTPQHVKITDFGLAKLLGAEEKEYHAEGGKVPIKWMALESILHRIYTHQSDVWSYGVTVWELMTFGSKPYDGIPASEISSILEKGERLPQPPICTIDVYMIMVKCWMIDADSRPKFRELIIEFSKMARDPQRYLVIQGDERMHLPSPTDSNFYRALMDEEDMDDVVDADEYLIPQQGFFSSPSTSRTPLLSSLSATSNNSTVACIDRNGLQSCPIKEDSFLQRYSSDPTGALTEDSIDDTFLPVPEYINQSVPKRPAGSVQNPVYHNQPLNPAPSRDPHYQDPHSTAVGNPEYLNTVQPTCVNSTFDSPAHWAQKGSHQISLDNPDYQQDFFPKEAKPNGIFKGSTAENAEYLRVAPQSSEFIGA
The experiment is described as follows: BaF3 cell proliferation assay (CellTiterGlo), EGFR V3. As for the experimental part: as §1, §2, §3

Experiment [3] addresses T3, HER2 S310F (Homo sapiens, UniProt P04626, S310F).
T3 construct: expressed in transfected cells; host or cells: BaF3 (murine pro-B) cells
The experiment in a line: BaF3 cell proliferation assay (CellTiterGlo), HER2 S310F.

Experiment [4] addresses T4, HER2 YVMA (Homo sapiens, UniProt P04626, INS775YVMA).
T4 construct: expressed in transfected cells; host or cells: BaF3 (murine pro-B) cells
The experiment in a line: BaF3 cell proliferation assay (CellTiterGlo), HER2 YVMA.

T3 sequence (P04626 23-1255 S310F): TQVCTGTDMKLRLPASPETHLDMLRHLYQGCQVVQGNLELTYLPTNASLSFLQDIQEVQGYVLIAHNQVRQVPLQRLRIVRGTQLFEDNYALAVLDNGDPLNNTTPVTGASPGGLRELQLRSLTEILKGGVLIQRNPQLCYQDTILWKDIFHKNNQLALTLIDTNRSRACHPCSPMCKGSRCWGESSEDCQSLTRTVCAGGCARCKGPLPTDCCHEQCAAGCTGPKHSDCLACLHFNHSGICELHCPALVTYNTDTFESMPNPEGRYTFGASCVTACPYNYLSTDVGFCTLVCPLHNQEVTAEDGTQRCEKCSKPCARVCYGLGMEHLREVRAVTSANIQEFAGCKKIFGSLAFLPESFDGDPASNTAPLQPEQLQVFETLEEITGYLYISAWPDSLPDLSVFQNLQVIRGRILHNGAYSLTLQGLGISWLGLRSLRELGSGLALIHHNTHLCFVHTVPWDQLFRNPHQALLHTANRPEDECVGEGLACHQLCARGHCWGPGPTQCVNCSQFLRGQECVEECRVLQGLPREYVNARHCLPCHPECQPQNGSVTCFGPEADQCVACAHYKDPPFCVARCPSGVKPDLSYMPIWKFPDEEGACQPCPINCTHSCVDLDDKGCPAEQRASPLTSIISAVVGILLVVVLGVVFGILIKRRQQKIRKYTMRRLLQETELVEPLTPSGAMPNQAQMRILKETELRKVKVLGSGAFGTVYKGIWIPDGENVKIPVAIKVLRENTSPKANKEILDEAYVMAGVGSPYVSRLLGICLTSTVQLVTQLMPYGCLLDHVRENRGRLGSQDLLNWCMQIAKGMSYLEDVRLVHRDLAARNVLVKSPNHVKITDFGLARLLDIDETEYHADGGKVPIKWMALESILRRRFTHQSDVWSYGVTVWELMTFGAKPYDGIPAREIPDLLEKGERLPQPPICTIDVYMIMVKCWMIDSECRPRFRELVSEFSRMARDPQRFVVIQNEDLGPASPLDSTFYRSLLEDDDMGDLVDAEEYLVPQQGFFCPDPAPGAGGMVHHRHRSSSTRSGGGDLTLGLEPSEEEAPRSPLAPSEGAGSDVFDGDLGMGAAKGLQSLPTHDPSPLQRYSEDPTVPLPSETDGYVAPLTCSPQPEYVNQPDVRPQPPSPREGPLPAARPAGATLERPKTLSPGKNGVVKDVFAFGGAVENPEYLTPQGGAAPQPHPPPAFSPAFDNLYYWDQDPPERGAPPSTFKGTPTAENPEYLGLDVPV
T4 sequence (P04626 with tags, fused parts or gaps INS775YVMA): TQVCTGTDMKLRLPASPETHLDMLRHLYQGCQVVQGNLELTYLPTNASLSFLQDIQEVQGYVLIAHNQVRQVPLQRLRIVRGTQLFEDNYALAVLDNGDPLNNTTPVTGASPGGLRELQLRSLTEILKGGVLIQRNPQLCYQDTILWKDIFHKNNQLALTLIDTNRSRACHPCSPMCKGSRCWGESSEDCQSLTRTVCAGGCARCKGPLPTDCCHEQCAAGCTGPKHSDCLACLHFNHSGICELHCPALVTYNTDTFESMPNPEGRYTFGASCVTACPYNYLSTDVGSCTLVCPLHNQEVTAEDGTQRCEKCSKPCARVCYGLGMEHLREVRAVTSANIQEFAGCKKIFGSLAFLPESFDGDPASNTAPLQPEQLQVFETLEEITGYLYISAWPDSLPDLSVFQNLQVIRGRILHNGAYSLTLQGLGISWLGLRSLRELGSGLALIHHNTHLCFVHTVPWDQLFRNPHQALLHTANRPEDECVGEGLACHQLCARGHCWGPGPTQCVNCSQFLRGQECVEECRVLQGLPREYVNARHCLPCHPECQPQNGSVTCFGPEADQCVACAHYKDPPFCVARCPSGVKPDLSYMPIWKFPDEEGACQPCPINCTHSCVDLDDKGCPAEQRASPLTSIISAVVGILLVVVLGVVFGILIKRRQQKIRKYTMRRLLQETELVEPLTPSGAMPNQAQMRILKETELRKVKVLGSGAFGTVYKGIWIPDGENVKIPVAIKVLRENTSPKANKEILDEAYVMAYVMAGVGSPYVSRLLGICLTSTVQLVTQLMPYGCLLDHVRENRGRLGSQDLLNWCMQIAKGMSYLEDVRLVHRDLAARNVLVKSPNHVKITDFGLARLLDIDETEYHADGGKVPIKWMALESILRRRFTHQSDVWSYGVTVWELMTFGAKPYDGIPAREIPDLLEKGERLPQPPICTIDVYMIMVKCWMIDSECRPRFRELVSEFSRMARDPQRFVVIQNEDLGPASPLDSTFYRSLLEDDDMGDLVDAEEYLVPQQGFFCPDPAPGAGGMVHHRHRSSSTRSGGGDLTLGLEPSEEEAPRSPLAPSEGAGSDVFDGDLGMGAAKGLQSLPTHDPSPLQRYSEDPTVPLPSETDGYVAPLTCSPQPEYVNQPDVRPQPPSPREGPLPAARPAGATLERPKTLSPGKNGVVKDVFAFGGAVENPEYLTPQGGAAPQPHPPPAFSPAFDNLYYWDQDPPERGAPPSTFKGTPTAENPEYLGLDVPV

As to `C=CC(=O)Nc1cc2c(Nc3cccc(Cl)c3F)ncnc2cc1C#CC1(C)CCN(C)CC1` [Compound 4, N-(4-((3-chloro-2-fluorophenyl)amino)-7-((1,4-dimethylpiperidin-4-yl)ethynyl)quinazolin-6-yl)acrylamide], the IC50 was 50 to 100 nM in experiment [1], at most 50 nM in experiment [2], 100 to 500 nM in experiment [3] and 100 to 500 nM in experiment [4].

`C=C(F)C(=O)Nc1cc2c(Nc3cccc(Cl)c3F)ncnc2cc1C#CC1(C)CCN(C)C1` (stereo not shown) [Compound 5, N-(4-((3-chloro-2-fluorophenyl)amino)-7-((1,3-dimethylpyrrolidin-3-yl)ethynyl)quinazolin-6-yl)-2-fluoroacrylamide]: the IC50 in experiment [1] is at most 50 nM; in experiment [2] it was at most 50 nM; in experiment [3], 100 to 500 nM; in experiment [4], 100 to 500 nM.

As to `C=CC(=O)Nc1cc2c(Nc3cccc(Cl)c3F)ncnc2cc1C#C[C@@]1(C)CCCN1C` [Compound 6, (R)—N-(4-((3-chloro-2-fluorophenyl)amino)-7-((1,2-dimethylpyrrolidin-2-yl)-ethynyl)quinazolin-6-yl)acrylamide], the IC50 in experiment [1] was over 500 nM; in experiment [2], 50 to 100 nM; in experiment [3], 100 to 500 nM; in experiment [4], over 500 nM.

On to `C=CC(=O)Nc1cc2c(Nc3ccc(Cl)c(Cl)c3F)ncnc2cc1C#CC1(C)CCN(C)C1` (stereo not shown) [Compound 7, N-(4-((3,4-dichloro-2-fluorophenyl)amino)-7-((1,3-dimethylpyrrolidin-3-yl)ethynyl)quinazolin-6-yl)acrylamide], for which the IC50 in experiment [1] was at most 50 nM; in experiment [2], at most 50 nM; in experiment [3] it was 50 to 100 nM; in experiment [4] it was 100 to 500 nM.

Take `C=CC(=O)Nc1cc2c(Nc3ccc(F)c(Cl)c3F)ncnc2cc1C#CC1(C)CCN(C)C1` (stereo not shown) [Compound 8, N-(4-((3-chloro-2,4-difluorophenyl)amino)-7-((1,3-dimethylpyrrolidin-3-yl)ethynyl)-quinazolin-6-yl)acrylamide]: the IC50 in experiment [1] was at most 50 nM; in experiment [2] it was at most 50 nM; in experiment [3], 50 to 100 nM; in experiment [4], 100 to 500 nM.

Consider `C=CC(=O)Nc1cc2c(Nc3cccc(Cl)c3F)ncnc2cc1C#CC12CCC(CC1)N2C` [Compound 10, N-(4-((3-chloro-2-fluorophenyl)amino)-7-((7-methyl-7-azabicyclo[2.2.1]heptan-1-yl)ethynyl)quinazolin-6-yl)acrylamide], for which the IC50 in experiment [1] was 100 to 500 nM; in experiment [2], at most 50 nM; in experiment [3], 100 to 500 nM; in experiment [4] it was over 500 nM.

Consider `C=CC(=O)Nc1cc2c(Nc3cccc(Cl)c3F)ncnc2cc1C#CC1(C)CN(C)C1` [Compound 11, N-(4-((3-chloro-2-fluorophenyl)amino)-7-((1,3-dimethylazetidin-3-yl)ethynyl)quinazolin-6-yl) acrylamide], for which the IC50 was 100 to 500 nM in experiment [1], at most 50 nM in experiment [2], 100 to 500 nM in experiment [3] and 100 to 500 nM in experiment [4].

As for `C=CC(=O)Nc1cc2c(Nc3ccc(OCc4ccccn4)c(Cl)c3)ncnc2cc1C#C[C@]1(C)CCN(C)C1` [Compound 13, (S)—N-(4-((3-chloro-4-(pyridin-2-ylmethoxy)phenyl)amino)-7-((1,3-dimethylpyrrolidin-3-yl)ethynyl)quinazolin-6-yl)acrylamide], the half-inhibitory concentration (IC50) was 100 to 500 nM in experiment [1], at most 50 nM in experiment [2], at most 50 nM in experiment [3] and at most 50 nM in experiment [4].

For `C=CC(=O)Nc1cc2c(Nc3ccc(OCc4ccccn4)c(Cl)c3)ncnc2cc1C#C[C@@]1(C)CCN(C)C1` [Compound 14, (R)—N-(4-((3-chloro-4-(pyridin-2-ylmethoxy)phenyl)amino)-7-((1,3-dimethylpyrrolidin-3-yl)ethynyl)quinazolin-6-yl)acrylamide], the IC50 in experiment [1] is over 500 nM; in experiment [2] it was at most 50 nM; in experiment [3], at most 50 nM; in experiment [4], 50 to 100 nM.

Take `C=CC(=O)Nc1cc2c(Nc3ccc(OCc4ccccn4)c(Cl)c3)ncnc2cc1C#C[C@@]1(C)CCCN1C` [Compound 16, (R)—N-(4-((3-chloro-4-(pyridin-2-ylmethoxy)phenyl)amino)-7-((1,2-dimethylpyrrolidin-2-yl)ethynyl)quinazolin-6-yl)acrylamide]: the IC50 in experiment [1] was over 500 nM; in experiment [2] it was 50 to 100 nM; in experiment [3] it was at most 50 nM; in experiment [4] it was 100 to 500 nM.

For the molecule `C=CC(=O)Nc1cc2c(Nc3cccc(Cl)c3F)ncnc2cc1C#CC12CCN(CC1)CC2` [Compound 17, N-(4-((3-chloro-2-fluorophenyl)amino)-7-(quinuclidin-4-ylethynyl)-quinazolin-6-yl)acrylamide], the IC50 was at most 50 nM in experiment [1], at most 50 nM in experiment [2], 100 to 500 nM in experiment [3] and 100 to 500 nM in experiment [4].

For `CN1C[C@H]2C[C@@]2(C#Cc2cc3ncnc(Nc4cccc(Cl)c4F)c3cc2NC(=O)/C=C/CN2CCCC(C(=O)O)C2)C1` (stereo partly drawn) [Compound 19, 1-[(E)-4-[[4-(3-chloro-2-fluoro-anilino)-7-[2-[(1R,5S)-3-methyl-3-azabicyclo[3.1.0]hexan-1-yl]ethynyl]quinazolin-6-yl]amino]-4-oxo-but-2-enyl]piperidine-3-carboxylic acid], the IC50 in experiment [1] was 100 to 500 nM; in experiment [2], over 500 nM; in experiment [3], 50 to 100 nM; in experiment [4], over 500 nM.

For `CN1C[C@H]2C[C@@]2(C#Cc2cc3ncnc(Nc4cccc(Cl)c4F)c3cc2NC(=O)/C=C/CN2C3COCC2C3)C1` [Compound 20, (E)-4-(3-oxa-6-azabicyclo[3.1.1]heptan-6-yl)-N-(4-((3-chloro-2-fluorophenyl)amino)-7-(((1R,5S)-3-methyl-3-azabicyclo[3.1.0]hexan-1-yl)ethynyl)quinazolin-6-yl)but-2-enamide], the IC50 in experiment [1] is 100 to 500 nM; in experiment [2] it was at most 50 nM; in experiment [3], at most 50 nM.

For the molecule `COC/C=C/C(=O)Nc1cc2c(Nc3cccc(Cl)c3F)ncnc2cc1C#C[C@@]12C[C@@H]1CN(C)C2` [Compound 21, (E)-N-(4-((3-chloro-2-fluorophenyl)amino)-7-(((1R,5S)-3-methyl-3-azabicyclo[3.1.0]hexan-1-yl)ethynyl)quinazolin-6-yl)-4-methoxybut-2-enamide], the IC50 in experiment [1] was at most 50 nM; in experiment [2] it was 100 to 500 nM; in experiment [3], 100 to 500 nM; in experiment [4], over 500 nM.

As to `CN1C[C@H]2C[C@@]2(C#Cc2cc3ncnc(Nc4cccc(Cl)c4F)c3cc2NC(=O)C(F)Cl)C1` (stereo partly drawn) [Compound 23, 2-chloro-N-(4-((3-chloro-2-fluorophenyl)-amino)-7-(((1R,5S)-3-methyl-3-azabicyclo[3.1.0]hexan-1-yl)ethynyl)quinazolin-6-yl)-2-fluoroacetamide], the figures for the IC50 in experiment [1], in experiment [2] and in experiment [3] were 50 to 100 nM, over 500 nM and 100 to 500 nM, respectively.

With `CN(C)C/C=C/C(=O)Nc1cc2c(Nc3cccc(Cl)c3F)ncnc2cc1C#C[C@@]1(C)CCN(C)C1` [Compound 24, (R,E)-N-(4-((3-chloro-2-fluorophenyl)amino)-7-((1,3-dimethylpyrrolidin-3-yl)ethynyl)quinazolin-6-yl)-4-(dimethylamino)but-2-enamide], the IC50 in experiment [1] is over 500 nM; in experiment [2], 50 to 100 nM; in experiment [3], 100 to 500 nM.

On to `CN1CC[C@](C)(C#Cc2cc3ncnc(Nc4cccc(Cl)c4F)c3cc2NC(=O)/C=C/CN2CCOCC2)C1` [Compound No. 81, (R,E)-N-(4-((3-chloro-2-fluorophenyl)amino)-7-((1,3-dimethylpyrrolidin-3-yl)ethynyl)quinazolin-6-yl)-4-morpholinobut-2-enamide], for which the IC50 was 100 to 500 nM in experiment [2], over 500 nM in experiment [3] and over 500 nM in experiment [4].
